Source: ChEMBL document CHEMBL3988442, “University of Dundee, Small-Polar-MMV Screening Library” (2021)
pIC50: −log10 of the molar value.

Target: T1, Ubiquitin-activating enzyme e1, putative (Leishmania donovani (strain BPK282A1), UniProt E9BSI1)
T1 sequence (E9BSI1 whole entry): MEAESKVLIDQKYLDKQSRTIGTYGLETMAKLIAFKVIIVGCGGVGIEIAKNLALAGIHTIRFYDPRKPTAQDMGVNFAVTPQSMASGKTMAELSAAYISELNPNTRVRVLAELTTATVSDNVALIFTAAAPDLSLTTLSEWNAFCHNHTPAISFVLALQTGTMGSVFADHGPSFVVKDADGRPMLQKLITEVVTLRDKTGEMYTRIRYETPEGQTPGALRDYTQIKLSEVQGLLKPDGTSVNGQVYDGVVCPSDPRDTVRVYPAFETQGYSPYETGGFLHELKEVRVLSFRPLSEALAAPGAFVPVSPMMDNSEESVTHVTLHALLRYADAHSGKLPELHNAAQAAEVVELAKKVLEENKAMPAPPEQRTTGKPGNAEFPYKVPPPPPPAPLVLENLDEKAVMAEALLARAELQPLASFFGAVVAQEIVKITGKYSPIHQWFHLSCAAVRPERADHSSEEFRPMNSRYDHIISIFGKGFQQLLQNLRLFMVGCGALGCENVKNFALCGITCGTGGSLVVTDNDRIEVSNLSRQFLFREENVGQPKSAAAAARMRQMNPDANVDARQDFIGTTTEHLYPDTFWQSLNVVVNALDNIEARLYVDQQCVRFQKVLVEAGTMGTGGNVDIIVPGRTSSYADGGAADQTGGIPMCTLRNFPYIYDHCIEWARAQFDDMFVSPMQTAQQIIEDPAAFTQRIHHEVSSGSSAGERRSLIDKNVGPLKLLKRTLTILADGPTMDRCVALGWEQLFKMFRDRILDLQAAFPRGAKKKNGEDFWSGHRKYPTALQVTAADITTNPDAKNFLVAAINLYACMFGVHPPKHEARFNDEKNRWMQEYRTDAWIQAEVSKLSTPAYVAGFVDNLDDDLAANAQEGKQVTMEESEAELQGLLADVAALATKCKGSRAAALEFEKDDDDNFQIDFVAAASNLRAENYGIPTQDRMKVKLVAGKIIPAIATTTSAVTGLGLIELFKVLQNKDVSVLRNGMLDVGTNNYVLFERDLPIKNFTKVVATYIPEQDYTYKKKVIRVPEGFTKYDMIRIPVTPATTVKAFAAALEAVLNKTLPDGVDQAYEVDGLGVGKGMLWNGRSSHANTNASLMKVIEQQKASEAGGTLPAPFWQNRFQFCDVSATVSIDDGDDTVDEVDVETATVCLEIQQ
Assay: Leishmania donovani Ubiquitin Activating Enzyme (LdE1)
Assay type: functional

pIC50 | SMILES
< 4.00 | COc1ccc(CNCc2ccnc(N3CCCC3)c2)c(OC)c1
< 4.00 | CC(C)C(NC(=O)NCCNc1ncccn1)c1cccs1 (stereo not given)
< 4.00 | CC(OCC1CC1)C(=O)N1CCCN(Cc2cnn(C)c2)CC1 (stereo not given)
< 4.00 | COCc1nc2cc(NCc3ncc[nH]3)ccc2o1
< 4.00 | c1csc(-c2noc(CNCCn3cccn3)n2)c1
< 4.00 | COc1ccc(-c2noc(CNC(C)Cn3cccn3)n2)c(OC)c1 (stereo not given)
< 4.00 | O=C(Cc1cccs1)N1C[C@@H]2COC[C@]2(COCc2cccnc2)C1
< 4.00 | O=C(CCS(=O)(=O)C1CCCC1)NCc1ccccc1Cn1cncn1
< 4.00 | Cc1cnn(CC2CCCCN2Cc2ncc(C(C)(C)C)o2)c1 (stereo not given)
< 4.00 | O=C(Cc1ccsc1)N1C[C@@H]2COC[C@]2(COCc2cccnc2)C1
< 4.00 | CC[C@@H]1N(CC2CCC2)CCC[C@]12CCC(=O)N2Cc1ccncc1
< 4.00 | CNS(=O)(=O)Cc1cccc(CNC(=O)Nc2cn[nH]c2)c1
< 4.00 | CC(C)N1CCC(Cc2cc(-c3ccccc3C(=O)O)ncn2)CC1
< 4.00 | CC(C)n1nc2c(cc1=O)CN(Cc1nnc(C3CC3)o1)CC2
< 4.00 | CC(C)c1nc2n(n1)CC(NCc1nc(C3CC3)no1)CC2 (stereo not given)
< 4.00 | COc1ccc(OC)c(CNCc2ccnc(N3CCCCC3)c2)c1
< 4.00 | CC(C)c1nc2n(n1)CC(NCc1nnc(C3CC3)o1)CC2 (stereo not given)
< 4.00 | CCn1nc2c(cc1=O)CN(Cc1coc(-c3ccccc3)n1)CC2
< 4.00 | Cc1cnn(CC(C)NCc2nc(-c3cccs3)no2)c1 (stereo not given)
< 4.00 | Cc1nc(C)n(CC2CCCN2Cc2ncc(C(C)(C)C)o2)n1 (stereo not given)
< 4.00 | Cc1cc(C)n(CC2CCCN2Cc2ncc(C(C)(C)C)o2)n1 (stereo not given)
< 4.00 | Cc1nc(C)n(CC2CCCCN2Cc2cnc(C)s2)n1 (stereo not given)
< 4.00 | CSC(C)C(=O)N1CCCN(Cc2nccn2C)CC1 (stereo not given)
< 4.00 | CNS(=O)(=O)Cc1ccc(CNC(=O)Nc2cccnc2)cc1
< 4.00 | Cc1nc(C)n(CC2CCCCN2Cc2ncc(C(C)(C)C)o2)n1 (stereo not given)

pIC50 | SMILES
< 4.00 | CC(O)CN1CCN(C(=O)c2ccc(N(C)C)nn2)CC1 (stereo not given)
< 4.00 | CCn1nc2c(cc1=O)CN(Cc1nnc(C3CC3)o1)CC2
< 4.00 | Cc1nc(C)c(C(=O)NCCNc2ncccc2C#N)s1
< 4.00 | Cn1ccnc1CN1CCCN(C(=O)COCC2CC2)CC1
< 4.00 | Cc1ncc(C(=O)NCCNc2ncccc2C#N)s1
< 4.00 | O=C(NCc1ccccc1Cn1cncn1)C1CCC1
< 4.00 | CC[C@H]1N(CC2CCC2)CCC[C@]12CCC(=O)N2Cc1ccncc1
< 4.00 | CNS(=O)(=O)c1ccc(CNC(=O)Nc2cn[nH]c2)cc1
< 4.00 | CS(=O)(=O)c1ccc(CNC(=O)Nc2cn[nH]c2)cc1
< 4.00 | Cc1ccccc1C(=O)N1C[C@@H]2COC[C@]2(COCc2cccnc2)C1
< 4.00 | Cc1nc(C(C)C)sc1C(=O)NCCNc1ncccc1C#N
< 4.00 | CN(C)c1ccc(C(=O)N2CCN(CC(C)(C)O)CC2)nn1
< 4.00 | COCCC(=O)N1C[C@@H]2COC[C@]2(COCc2cccnc2)C1
< 4.00 | O=C(c1ncccn1)N1C[C@@H]2COC[C@]2(COCc2cccnc2)C1
< 4.00 | O=C(c1ccccc1F)N1C[C@@H]2COC[C@]2(COCc2cccnc2)C1
< 4.00 | Cc1nc(C(C)(C)C)sc1C(=O)NCCNc1ncccc1C#N
< 4.00 | O=C(NCc1ccccc1Cn1cncn1)C1CC1
< 4.00 | Cn1ccnc1CN1CCCN(C(=O)CC(C2CC2)C2CC2)CC1
< 4.00 | CC(Cn1cccn1)NCCCc1nc(-c2cccs2)no1 (stereo not given)
< 4.00 | Cc1ccc(C(=O)N2C[C@@H]3COC[C@]3(COCc3cccnc3)C2)cn1
< 4.00 | CCCc1nc(C)c(C(=O)NCCNc2ncccc2C#N)s1
< 4.00 | CC(C)C(NC(=O)NCCNc1ccccn1)c1cccs1 (stereo not given)
< 4.00 | CC(Cn1cccn1)NCc1nc(-c2cccc(Cl)c2)no1 (stereo not given)
< 4.00 | CC(C)N1CCC(Cc2cncc(-c3cccc(C(=O)O)c3)n2)CC1
< 4.00 | CC(Cn1cccn1)NCc1nc(-c2ccccn2)no1 (stereo not given)

pIC50 | SMILES
< 4.00 | CC(O)CN1CCN(C(=O)c2ccc(N(C)C)nc2)CC1 (stereo not given)
< 4.00 | COc1ccc(CNCc2ccnc(N3CCCCC3)c2)cc1OC
< 4.00 | Cc1nc(C)n(CC2CCCCN2Cc2nnc(C3CC3)o2)n1 (stereo not given)
< 4.00 | COc1ccc(CNCc2ccnc(N3CCOCC3)c2)cc1OC
< 4.00 | CCC1CCCCN1Cc1ncc(C(C)(C)C)o1 (stereo not given)
< 4.00 | CCCn1nc2c(cc1=O)CN(Cc1nnc(C3CC3)o1)CC2
< 4.00 | CC(C)N1CCC(Cc2cnc(-c3cccc(C(=O)O)c3)cn2)C1 (stereo not given)
< 4.00 | CC(C)N1CCC(Cc2cc(-c3cccc(C(=O)O)c3)ncn2)C1 (stereo not given)
< 4.00 | Cn1nc2c(cc1=O)CN(Cc1coc(-c3ccccc3)n1)CC2
< 4.00 | O=C(CCNC(=O)C1CCCC1)NCc1ccccc1Cn1ccnc1
< 4.00 | Cn1cc(C(=O)N2C[C@@H]3COC[C@]3(COCc3cccnc3)C2)cn1
< 4.00 | CCC(O)CN1CCN(C(=O)c2ccc(N(C)C)nn2)CC1 (stereo not given)
< 4.00 | CC(C)c1nc2n(n1)CC(NCc1nnnn1C1CC1)CC2 (stereo not given)
< 4.00 | CC(Cn1cccn1)NCc1nc(-c2ccccc2Cl)no1 (stereo not given)
< 4.00 | CCc1nc(C)c(C(=O)NCCNc2ncccc2C#N)s1
< 4.00 | CC(C)c1nc2n(n1)CC(NCc1ncc(C(C)(C)C)o1)CC2 (stereo not given)
< 4.00 | CC(C)C(NC(=O)Nc1ccccn1)c1cccs1 (stereo not given)
< 4.00 | Cc1ccc(C(=O)NCCNc2ncccc2C#N)c(=O)[nH]1
< 4.00 | CC(NC(=O)NCCNc1ccccn1)c1cccs1 (stereo not given)
< 4.00 | COc1cc(CNCc2ccnc(N3CCCCC3)c2)cc(OC)c1
< 4.00 | O=C(CCNC(=O)C1CCCC1)NCc1ccccc1Cn1cncn1
< 4.00 | Cc1nc(C)c(C(=O)NCCNc2ncccc2C(F)(F)F)s1
< 4.00 | CC(C)(C)c1cnc(CN2CCC[C@H]2CO)o1
< 4.00 | CC(OCC1CC1)C(=O)N1CCCN(Cc2nccn2C)CC1 (stereo not given)
< 4.00 | O=C(CC1CCCO1)NCc1ccccc1Cn1cncn1 (stereo not given)

pIC50 | SMILES
< 4.00 | CC(C)C(NC(=O)NCCNc1cnccn1)c1cccs1 (stereo not given)
< 4.00 | O=C(NCc1ccccc1Cn1cncn1)C1CCCCC1
< 4.00 | CCc1nc2n(n1)CC(NCc1nnc(C(C)C)o1)CC2 (stereo not given)
< 4.00 | CC(OCC1CC1)C(=O)N1CCCN(Cc2nccn2C(C)C)CC1 (stereo not given)
< 4.00 | CCOCC(O)CN1CCN(C(=O)c2ccc(N(C)C)nn2)CC1 (stereo not given)
< 4.00 | COc1cc(CNCc2ccnc(N3CCCC3)c2)cc(OC)c1
< 4.00 | CCc1nnc(CN2CCCCC2Cn2nc(C)nc2C)o1 (stereo not given)
< 4.00 | O=C(CCC1CCCO1)NCc1ccccc1Cn1cncn1 (stereo not given)
< 4.00 | Cc1nc(C)n(CC2CCCN(Cc3ncc(C(C)(C)C)o3)C2)n1 (stereo not given)
< 4.00 | CC(O)CN1CCN(C(=O)c2ccc(N3CCCC3)nn2)CC1 (stereo not given)
< 4.00 | Cc1nc(C(=O)N2C[C@@H]3COC[C@]3(COCc3cccnc3)C2)cs1
< 4.00 | O=C(CCNC(=O)C1CCCC1)NCc1cccnc1-n1cncn1
< 4.00 | Cc1ccoc1C(=O)N1C[C@@H]2COC[C@]2(COCc2cccnc2)C1
< 4.00 | COCCNc1ccc(CNC(=O)Nc2cn[nH]c2)cc1
< 4.00 | Cc1nc(CN2CCCN(C(=O)C(C)OCC3CC3)CC2)cs1 (stereo not given)
< 4.00 | CC(Oc1ccccc1)C(=O)N1CCCN(Cc2nccn2C)CC1 (stereo not given)
< 4.00 | O=C(NCc1ccccc1Cn1cncn1)C1CCCC1
< 4.00 | CC(NC(=O)NCCNc1ncccn1)c1cccs1 (stereo not given)
< 4.00 | CN(C)c1ccc(C(=O)N2CCN(CC(O)C(C)(C)C)CC2)nn1 (stereo not given)
< 4.00 | Cc1nc(C)n(CC2CCCCN2Cc2nc3ccccc3o2)n1 (stereo not given)
< 4.00 | Cc1cc(C(=O)N2C[C@@H]3COC[C@]3(COCc3cccnc3)C2)no1
< 4.00 | Cc1ncsc1C(=O)NCCNc1ncccc1C#N
< 4.00 | COc1ccc(CNCc2ccc(N3CCCCC3)nc2)cc1OC

SMILES | pIC50
CC[C@H]1N(C)CCC[C@]12CCC(=O)N2Cc1ccncc1 | < 4.00
CC(Cn1cccn1)NCc1nc(-c2cccs2)no1 (stereo not given) | < 4.00
CCCN1CCC[C@]2(CCC(=O)N2Cc2ccncc2)[C@H]1CC | < 4.00
CC(Cn1cccn1)NCc1nc(-c2ccsc2)no1 (stereo not given) | < 4.00
CC[C@H]1NCCC[C@]12CCC(=O)N2Cc1ccncc1 | < 4.00
CC[C@@H]1N(C)CCC[C@]12CCC(=O)N2Cc1ccncc1 | < 4.00
CC(Cn1cccn1)NCc1nc(-c2ccco2)no1 (stereo not given) | < 4.00
